# According to patent US9029389B2 (Institut Pasteur Korea, priority 2011, dated 2015):
# Biological target: T1, Human 5-lipoxygenase (Homo sapiens, UniProt P09917)
# T1 construct: purchased Cayman 60402; host or cells: insect cells
# T1 sequence (P09917 1-674): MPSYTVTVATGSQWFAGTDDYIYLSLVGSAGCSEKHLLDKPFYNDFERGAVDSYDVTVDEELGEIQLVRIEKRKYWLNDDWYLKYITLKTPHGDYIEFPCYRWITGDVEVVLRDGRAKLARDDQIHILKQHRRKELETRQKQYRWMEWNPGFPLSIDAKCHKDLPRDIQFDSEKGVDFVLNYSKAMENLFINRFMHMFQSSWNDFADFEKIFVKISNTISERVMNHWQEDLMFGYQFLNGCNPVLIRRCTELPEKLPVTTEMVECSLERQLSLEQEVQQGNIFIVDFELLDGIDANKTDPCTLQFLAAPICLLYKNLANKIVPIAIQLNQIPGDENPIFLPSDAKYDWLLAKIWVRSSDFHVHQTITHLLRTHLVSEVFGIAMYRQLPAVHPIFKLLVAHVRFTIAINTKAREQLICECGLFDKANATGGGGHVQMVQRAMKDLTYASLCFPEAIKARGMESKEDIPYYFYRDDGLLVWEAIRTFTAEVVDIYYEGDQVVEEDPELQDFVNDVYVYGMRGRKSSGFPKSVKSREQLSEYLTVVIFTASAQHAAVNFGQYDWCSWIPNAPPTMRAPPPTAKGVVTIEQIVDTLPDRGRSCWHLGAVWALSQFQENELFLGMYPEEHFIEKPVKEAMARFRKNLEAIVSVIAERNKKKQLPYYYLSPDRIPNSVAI
# Assay: Activity of compounds against 5-LO enzyme (LTB4 measurement and/or fluorescence method)
# Assay type: biochemical
# Settings: 5-LO, single concentration of 10 uM in duplicate
# Summary of the method: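 Insect-cell human 5-LO preincubated 15 min at RT with compound (pH 7.4, 2 mM CaCl2, 0.1 mM ATP, 1% DMSO), then 3 uM arachidonic acid for 5 min at 37 °C; LTB4 quantified by EIA and/or LC/MS/MS. Alternatively, fluorescence of 5-HpETE via H2DCFDA, 100 uM ATP, 3 uM arachidonic acid, 5 min, RT; single 10 uM screen then 6- or 11-point IC50.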
row,Compound,inhibition at 10 µM
1,"CCc1nc2ccc(Cl)cn2c1C(=O)NCc1ccc(N2CCCCC2C)cc1 (stereo not shown) [compound 251, 6-chloro-2-ethyl-N-(4-(2-methylpiperidin-1-yl)benzyl)imidazo[1,2-a]pyridine-3-carboxamide]",< 40%
2,"CCc1nc2cc(OC)ccn2c1C(=O)NCc1ccc(OC(F)(F)F)cc1 [compound 118, 2-Ethyl-7-methoxy-N-(4-(trifluoromethoxy)benzyl)imidazo[1,2-a]pyridine-3-carboxamide]",< 40%
3,"Cc1nc2ccc(F)cn2c1C(=O)NCc1ccccc1 [compound 40, N-Benzyl-6-fluoro-2-methylimidazo[1,2-a]pyridine-3-carboxamide]",< 40%
4,"CCc1nc2cc(Cl)ccn2c1C(=O)NCc1ccc(-c2cccc(C#N)c2)cc1 [compound 101, 7-Chloro-N-((3′-cyanobiphenyl-4-yl)methyl)-2-ethylimidazo[1,2-a]pyridine-3-carboxamide]",40 to 69%
5,"CCc1nc2cc(OC)ccn2c1C(=O)NCc1ccc(N2CCN(c3ccc(F)cc3)CC2)cc1 [compound 264, 2-Ethyl-N-(4-(4-(4-fluorophenyl)piperazin-1-yl)benzyl)-7-methoxyimidazo[1,2-a]pyridine-3-carboxamide]",< 40%
6,"CCc1nc2cc(Cl)ccn2c1C(=O)NCc1ccc(-c2ccccc2C)cc1 [compound 85, 7-Chloro-2-ethyl-N-((2′-methylbiphenyl-4-yl)methyl)imidazo[1,2-a]pyridine-3-carboxamide]",> 69%
7,"CCc1nc2ccccn2c1C(=O)NCc1ccc(OC(F)(F)F)cc1 [compound 51, 2-Ethyl-N-(4-(trifluoromethoxy)benzyl)imidazo[1,2-a]pyridine-3-carboxamide]",< 40%
8,"CCc1nc2ccccn2c1C(=O)NCc1ccc2c(ccn2C)c1 [compound 50, 2-Ethyl-N-((1-methyl-1H-indol-5-yl)methyl)imidazo[1,2-a]pyridine-3-carboxamide]",< 40%
9,"Cc1nc2c(F)cccn2c1C(=O)NCc1ccccc1 [compound 35, N-Benzyl-8-fluoro-2-methylimidazo[1,2-a]pyridine-3-carboxamide]",< 40%
10,CCc1nc2cc(Cl)ccn2c1C(=O)OCc1ccc(Oc2ccc(F)cc2)cc1 [compound 203],< 40%
11,"CCc1nc2cc(Cl)ccn2c1C(=O)NCc1ccc(N2CC3CC=CCC3C2)cc1 (stereo not shown) [compound 202, 7-Chloro-N-(4-(3a,4-dihydro-1H-isoindol-2(3H7H,7aH)-yl)benzyl)-2-ethylimidazo[1,2-a]pyridine-3-carboxamide]",40 to 69%
12,"Cc1nc2c(Cl)cccn2c1C(=O)NCc1ccccc1 [compound 15, N-Benzyl-8-chloro-2-methylimidazo[1,2-a]pyridine-3-carboxamide]",< 40%
13,"CCc1nc2cc(Cl)ccn2c1C(=O)NCc1ccc(N2CCC(Oc3ccc(C(F)(F)F)cc3)CC2)cc1 [compound 169, 7-Chloro-2-ethyl-N-(4-(4-(4-(trifluoromethyl)phenoxy)piperidin-1-yl)benzyl)imidazo[1,2-a]pyridine-3-carboxamide]",40 to 69%
14,"CC(C)(C)c1ccc(CNC(=O)c2c(C(F)(F)F)nc3ccc(Cl)cn23)cc1 [compound 81, N-(4-tert-Butylbenzyl)-6-chloro-2-(trifluoromethyl)imidazo[1,2-a]pyridine-3-carboxamide]",< 40%
15,"CCc1nc2cnccn2c1C(=O)NCc1ccc(-c2ccc(Cl)cc2)cc1 [compound 71, N-((4′-Chlorobiphenyl-4-yl)methyl)-2-ethylimidazo[1,2-a]pyrazine-3-carboxamide]",< 40%
16,"CCCCCNc1ccc(CNC(=O)c2c(CC)nc3cc(Cl)ccn23)cc1 [compound 110, 7-Chloro-2-ethyl-N-(4-(pentylamino)benzyl)imidazo[1,2-a]pyridine-3-carboxamide]",> 69%
17,"CCc1nc2c(Br)cccn2c1C(=O)NCc1ccc(N2CCN(c3ccc(F)cc3)CC2)cc1 [compound 260, 8-Bromo-2-ethyl-N-(4-(4-(4-fluorophenyl)piperazin-1-yl)benzyl)imidazo[1,2-a]pyridine-3-carboxamide]",> 69%
18,"CCc1nc2cc(Cl)ccn2c1C(=O)NCc1ccn(-c2ccc(OC(F)(F)F)cc2)n1 [compound 133, 7-Chloro-2-ethyl-N-((1-(4-(trifluoromethoxy)phenyl)-1H-pyrazol-3-yl)methyl)imidazo[1,2-a]pyridine-3-carboxamide]",40 to 69%
19,"CCc1nc2ccc(C(F)(F)F)cn2c1C(=O)NCc1ccc(OC(F)(F)F)cc1 [compound 121, 2-Ethyl-N-(4-(trifluoromethoxy)benzyl)-6-(trifluoromethyl)imidazo[1,2-a]pyridine-3-carboxamide]",40 to 69%
20,"CCc1nc2ccc(Cl)cn2c1C(=O)NCc1ccc(-c2ccc(C)cc2)cc1 [compound 77, 6-Chloro-2-ethyl-N-((4′-methylbiphenyl-4-yl)methyl)imidazo[1,2-a]pyridine-3-carboxamide]",< 40%
21,"Cc1ccn2c(C(=O)NCc3ccccc3)c(C)nc2c1 [compound 32, N-Benzyl-2,7-dimethylimidazo[1,2-a]pyridine-3-carboxamide]",< 40%
22,CCc1nc2ccc(Cl)cn2c1C(=O)NCc1ccc2c(ccn2C)c1 [compound 67],< 40%
23,"CCc1nc2ccc(C)cn2c1C(=O)NCc1ccc(OC(F)(F)F)cc1 [compound 59, 2-Ethyl-6-methyl-N-(4-(trifluoromethoxy)benzyl)imidazo[1,2-a]pyridine-3-carboxamide]",40 to 69%
24,CCc1nc2ccc(Cl)cn2c1C(=O)NCc1ccc(C(C)(C)C)cc1 [compound 63],40 to 69%

# More lines, now with the values ahead:
row,inhibition at 10 µM,Compound
1,< 40%,"CCc1nc2ccc(Cl)cn2c1C(=O)NCc1ccc(N2CCC(OCc3ccc(F)cc3)CC2)cc1 [compound 300, 6-Chloro-2-ethyl-N-(4-(4-(4-fluorobenzyloxy)piperidin-1-yl)benzyl)imidazo[1,2-a]pyridine-3-carboxamide]"
2,40 to 69%,"CCc1nc2cc(Br)ccn2c1C(=O)NCc1ccc(OC(F)(F)F)cc1 [compound 281, 7-Bromo-2-ethyl-N-(4-(trifluoromethoxy)benzyl)imidazo[1,2-a]pyridine-3-carboxamide]"
3,< 40%,"CCc1nc2cc(Cl)ccn2c1-c1nnc(Cc2ccc(F)cc2)o1 [compound 348, 2-(7-chloro-2-ethylimidazo[1,2-a]pyridin-3-yl)-5-(4-fluorobenzyl)-1,3,4-oxadiazole]"
4,< 40%,"CCc1nc2ccc(Cl)cn2c1C(=O)NCc1ccc(/C=C/c2ccc(F)cc2)cc1 [compound 329, (E)-6-chloro-2-ethyl-N-(4-(4-fluorostyryl)benzyl)imidazo[1,2-a]pyridine-3-carboxamide]"
5,< 40%,"CCc1nc2ccc(Cl)cn2c1C(=O)NCc1ccc(N2CCC(O)(C(C)(C)C)CC2)cc1 [compound 322, N-(4-(4-(tert-butyl)-4-hydroxypiperidin-1-yl)benzyl)-6-chloro-2-ethylimidazo[1,2-a]pyridine-3-carboxamide]"
6,> 69%,"CCc1nc2ccc(Cl)cn2c1C(=O)NCc1ccc(N2CCC(C(=O)c3ccc(OC(F)(F)F)cc3)CC2)cc1 [compound 324, 6-chloro-2-ethyl-N-(4-(4-(4-(trifluoromethoxy)benzoyl)piperidin-1-yl)benzyl)imidazo[1,2-a]pyridine-3-carboxamide]"
7,< 40%,"CCc1nc2ccc(Cl)cn2c1CNCCc1ccccn1 [compound 342, N-((6-chloro-2-ethylimidazo[1,2-a]pyridin-3-yl)methyl)-2-(pyridin-2-yl)ethanamine]"
8,40 to 69%,"CCc1nc2ccc(Cl)cn2c1C(=O)NCc1ccc(N2CCC(Oc3ccc(F)cc3)CC2)cc1 [compound 308, 6-Chloro-2-ethyl-N-(4-(4-(4-fluorophenoxy)piperidin-1-yl)benzyl)imidazo[1,2-a]pyridine-3-carboxamide]"
9,40 to 69%,"CCc1nc2cc(Cl)ccn2c1C(=O)NCc1ccc(N2CCC(c3ccc(OC(F)(F)F)cc3)CC2)cc1 [compound 268, 7-Chloro-2-ethyl-N-(4-(4-(4-(trifluoromethoxy)phenyl)piperidin-1-yl)benzyl)imidazo[1,2-a]pyridine-3-carboxamide]"
10,< 40%,"CCc1nc2ccc(Cl)cn2c1CNCc1ccc(F)cc1 [compound 338, 1-(6-chloro-2-ethylimidazo[1,2-a]pyridin-3-yl)-N-(4-fluorobenzyl)methanamine]"

# Same assay, conditions: 6 or 11 point dose response in duplicate
row,Compound,IC50
1,"CCCCCNc1ccc(CNC(=O)c2c(CC)nc3cc(Cl)ccn23)cc1 [compound 110, 7-Chloro-2-ethyl-N-(4-(pentylamino)benzyl)imidazo[1,2-a]pyridine-3-carboxamide]",> 20 µM
2,"CCc1nc2c(Br)cccn2c1C(=O)NCc1ccc(N2CCN(c3ccc(F)cc3)CC2)cc1 [compound 260, 8-Bromo-2-ethyl-N-(4-(4-(4-fluorophenyl)piperazin-1-yl)benzyl)imidazo[1,2-a]pyridine-3-carboxamide]",> 20 µM
3,"CCc1nc2cnccn2c1C(=O)N1CCC(OCc2ccc(OC(F)(F)F)cc2)CC1 [compound 389, (2-Ethylimidazo[1,2-a]pyrazin-3-yl)(4-((4-(trifluoromethoxy)benzyl)oxy)piperidin-1-yl)methanone]",> 20 µM
